Where two headings read alike, the source gives them in different places.
Assays:
5-HT6 = details: known drugs of Table 1; reference not given; cited from earlier work
scn1lab mutant zebrafish [1] = tested on: scn1lab mutant zebrafish; parameters: method as in Dinday and Baraban, 2015; Sourbron et al., 2016; details: ref Dinday and Baraban, 2015; Sourbron et al., 2016; cited from earlier work
5-HT1B = details: known drugs of Table 1; reference not given; cited from earlier work
Adrenergic alpha1B = details: known drugs of Table 1; reference not given; cited from earlier work
[2] = use as anorectic; ref Abenhaim et al., 1996; Khan et al., 1998; cited from earlier work
5-HT7 = details: known drugs of Table 1; reference not given; cited from earlier work
5-HT1D = details: known drugs of Table 1; reference not given; cited from earlier work
human 5-HT2BR [3] = molecular target: T1, human 5-HT2BR (Homo sapiens, UniProt P41595)
T1 sequence (P41595 whole entry): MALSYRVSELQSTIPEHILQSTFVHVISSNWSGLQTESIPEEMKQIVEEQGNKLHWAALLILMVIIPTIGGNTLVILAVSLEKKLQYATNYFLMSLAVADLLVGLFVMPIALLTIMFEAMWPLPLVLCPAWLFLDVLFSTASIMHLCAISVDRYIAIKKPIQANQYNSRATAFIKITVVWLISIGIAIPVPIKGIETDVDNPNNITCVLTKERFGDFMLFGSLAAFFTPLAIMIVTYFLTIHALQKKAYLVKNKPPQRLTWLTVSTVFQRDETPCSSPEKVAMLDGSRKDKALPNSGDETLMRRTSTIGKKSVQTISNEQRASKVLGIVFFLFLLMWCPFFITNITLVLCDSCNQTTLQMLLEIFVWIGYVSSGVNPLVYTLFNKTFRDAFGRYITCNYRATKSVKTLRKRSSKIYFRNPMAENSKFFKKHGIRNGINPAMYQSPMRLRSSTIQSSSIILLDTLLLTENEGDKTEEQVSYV

[4] = molecular target: Norepinephrine transporter; details: known drugs of Table 1; reference not given; cited from earlier work
5-HT1A = details: known drugs of Table 1; reference not given; cited from earlier work
Histamine H3 = details: known drugs of Table 1; reference not given; cited from earlier work
human 5-HT2AR [5] = molecular target: T2, human 5-HT2AR (Homo sapiens, UniProt P28223); details: known drugs of Table 1; reference not given; read-out: Ki 5-HT2A, Table 1 known drugs; cited from earlier work
T2 sequence (P28223 whole entry): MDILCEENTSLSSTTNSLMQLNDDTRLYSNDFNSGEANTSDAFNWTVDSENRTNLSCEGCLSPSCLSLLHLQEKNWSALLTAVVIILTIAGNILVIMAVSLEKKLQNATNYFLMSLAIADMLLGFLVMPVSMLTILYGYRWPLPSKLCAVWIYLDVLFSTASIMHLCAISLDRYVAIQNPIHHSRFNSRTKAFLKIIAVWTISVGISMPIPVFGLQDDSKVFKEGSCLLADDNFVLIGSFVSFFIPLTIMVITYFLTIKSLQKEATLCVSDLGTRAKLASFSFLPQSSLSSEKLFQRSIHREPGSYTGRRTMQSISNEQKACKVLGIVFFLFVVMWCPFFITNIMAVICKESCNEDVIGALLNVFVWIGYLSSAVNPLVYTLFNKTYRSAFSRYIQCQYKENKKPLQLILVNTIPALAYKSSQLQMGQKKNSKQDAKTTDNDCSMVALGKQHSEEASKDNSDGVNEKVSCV

human H1 [6] = molecular target: T3, human H1 (Homo sapiens, UniProt P35367); details: known drugs of Table 1; reference not given; read-out: Ki Histamine H1, Table 1 known drugs; cited from earlier work
T3 sequence (P35367 whole entry): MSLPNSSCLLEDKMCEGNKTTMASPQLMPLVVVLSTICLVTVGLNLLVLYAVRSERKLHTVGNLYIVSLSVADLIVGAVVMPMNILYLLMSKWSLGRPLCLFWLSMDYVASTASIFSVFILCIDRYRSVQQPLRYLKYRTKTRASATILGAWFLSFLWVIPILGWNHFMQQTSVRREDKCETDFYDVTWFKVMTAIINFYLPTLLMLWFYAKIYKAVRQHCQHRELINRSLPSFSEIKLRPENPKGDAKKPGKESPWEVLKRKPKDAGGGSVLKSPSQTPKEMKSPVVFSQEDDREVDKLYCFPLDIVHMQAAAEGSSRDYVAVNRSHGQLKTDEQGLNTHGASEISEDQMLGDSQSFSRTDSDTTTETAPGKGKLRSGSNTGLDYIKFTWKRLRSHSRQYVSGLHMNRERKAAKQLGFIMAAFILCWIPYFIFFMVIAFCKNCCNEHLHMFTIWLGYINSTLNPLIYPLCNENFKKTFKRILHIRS

human 5-HT2CR [7] = molecular target: T4, human 5-HT2CR (Homo sapiens, UniProt P28335)
T4 sequence (P28335 33-458): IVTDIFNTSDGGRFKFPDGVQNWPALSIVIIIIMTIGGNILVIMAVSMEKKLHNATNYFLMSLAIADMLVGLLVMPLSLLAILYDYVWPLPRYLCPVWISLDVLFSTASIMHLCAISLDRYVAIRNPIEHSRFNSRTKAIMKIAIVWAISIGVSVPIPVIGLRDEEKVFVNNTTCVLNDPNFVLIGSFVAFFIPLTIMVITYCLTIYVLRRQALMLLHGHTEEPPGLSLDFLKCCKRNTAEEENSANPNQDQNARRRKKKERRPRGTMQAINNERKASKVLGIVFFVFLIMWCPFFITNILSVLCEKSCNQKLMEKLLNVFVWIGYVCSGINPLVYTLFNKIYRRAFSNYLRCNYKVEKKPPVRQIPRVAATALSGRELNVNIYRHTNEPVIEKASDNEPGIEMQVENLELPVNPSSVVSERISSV

scn1lab mutant zebrafish [8] = experiment: locomotion (mean swim velocity) seizure-like behaviour assay in scn1lab mutant zebrafish larvae; assay type: in vivo, Danio rerio; details: for change in vivo at 100 µM / change in vivo at 250 µM: Danio rerio
Method in brief: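 Scn1lab mutant larvae at 5 dpf, one per well in embryo media, acclimated 20 min at room temperature, then tracked 10 min for distance travelled and mean velocity. A ≥40% change in mean swim velocity counted as significant. Toxicity (heartbeat, touch escape response) checked after 90 min drug exposure.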

human 5-HT2BR [9] = molecular target: T1, human 5-HT2BR; experiment: radioligand binding (NIMH PDSP); details: read-out: Ki 5-HT2BR
Description: (§1) All in vitro binding assay and Ki data studies were performed by the US National Institute of Mental Health Psychoactive Drug Screening Program (NIMH PDSP). For these studies, drugs were screened against recombinant, stably expressed human 5-HT2AR, 5-HT2BR, 5-HT2CR and H1, as described at https://pdspdb.unc.edu/pdspWeb/ ([Besnard et al., 2012]).

human 5-HT2CR [10] = molecular target: T4, human 5-HT2CR; experiment: radioligand binding (NIMH PDSP)
Description: as §1

human 5-HT2AR [11] = molecular target: T2, human 5-HT2AR; experiment: radioligand binding (NIMH PDSP)
Description: as §1

human H1 [12] = molecular target: T3, human H1; experiment: radioligand binding (NIMH PDSP); details: read-out: Ki H1
Description: as §1

[13] = dissolution of compound at screening concentration; details: 250 µM
Description: Ten millimolars of compound stock solutions were made in dimethyl sulfoxide and then diluted in embryo medium for assays.

5-HT1E = details: known drugs of Table 1; reference not given; cited from earlier work
scn1lab mutant zebrafish [14] = experiment: local field potential (LFP) electrophysiology, electrographic seizure events; assay type: in vivo, Danio rerio; details: 250 µM; 10 min recording epoch
Description: Using a glass micro-electrode positioned under an upright microscope, local field potential (LFP) recordings were obtained from forebrain or optic tectum structures, as described ([Baraban et al., 2005]). Agarose-embedded LFP recording sessions (10 min in duration) were obtained using Axoclamp software (Molecular Devices; Sunnyvale, CA, USA) and sampled at 1 kHz. Epileptiform events were identified post hoc. These were classified as multi-spike or poly-spike upward or downward membrane deflections greater than 3× baseline noise level and 150–250 ms in duration (interictal-like) or greater than 5× baseline noise, multi-spike and >500 ms in duration (ictal-like); both events were counted using threshold detection settings in Clampfit (Molecular Devices; Sunnyvale, CA, USA). Agarose-embedded larvae were continuously monitored for blood flow and heart rate using an Axiocam digital camera at video frame rate.
Monitoring electrographic brain activity to confirm seizure suppression is an essential assay to eliminate false positives from behavioural testing ([Griffin et al., 2018]). By placing a micro-electrode into a visually identified brain region of an agar-immobilized zebrafish larval, stable LFP recordings can be monitored for several hours ([Baraban, 2013]). At 5 days post-fertilization, LFP recordings of scn1Lab zebrafish larvae show an average of 250 abnormal electrographic seizure events during a 10 min recording epoch.

5-HT1F = details: known drugs of Table 1; reference not given; cited from earlier work
Histamine H2 = details: known drugs of Table 1; reference not given; cited from earlier work
5-HT5 = details: known drugs of Table 1; reference not given; cited from earlier work
DOPAMINE D4 = details: read-out: Ki DOPAMINE D4; known drugs of Table 1; reference not given; cited from earlier work
Adrenergic alpha2A = details: read-out: Ki Adrenergic alpha2A; known drugs of Table 1; reference not given; cited from earlier work
Adrenergic alpha2B = details: read-out: Ki Adrenergic alpha2B; known drugs of Table 1; reference not given; cited from earlier work
Dopamine transporter = details: known drugs of Table 1; reference not given; cited from earlier work
5-HT transporter = details: known drugs of Table 1; reference not given; cited from earlier work
Adrenergic alpha1A = details: read-out: Ki Adrenergic alpha1A; known drugs of Table 1; reference not given; cited from earlier work
DOPAMINE D2 = details: known drugs of Table 1; reference not given; cited from earlier work
Adrenergic beta1 = details: read-out: Ki Adrenergic beta1; known drugs of Table 1; reference not given; cited from earlier work
Adrenergic beta2 = details: read-out: Ki Adrenergic beta2; known drugs of Table 1; reference not given; cited from earlier work
DOPAMINE D1 = details: read-out: Ki DOPAMINE D1; known drugs of Table 1; reference not given; cited from earlier work
DOPAMINE D5 = details: read-out: Ki DOPAMINE D5; known drugs of Table 1; reference not given; cited from earlier work
Adrenergic alpha2C = details: read-out: Ki Adrenergic alpha2C; known drugs of Table 1; reference not given; cited from earlier work
[15] = read-out: % change in velocity, individual larva 1 (heat map)
[16] = read-out: % change in velocity, individual larva 2 (heat map)
[17] = read-out: % change in velocity, individual larva 3 (heat map)
[18] = read-out: % change in velocity, individual larva 4 (heat map)
[19] = read-out: % change in velocity, individual larva 5 (heat map)
[20] = read-out: % change in velocity, individual larva 6 (heat map)
[21] = read-out: mean velocity change from six fish, Trial 1

**Q.** With `CCNC(C)Cc1cccc(C(F)(F)F)c1` (stereo not drawn) [fenfluramine] as the compound, how does the Ki (5-HT6) read?
**A.** The Ki was 9.08 µM.

**Q.** What about the “suppression of spontaneous seizures in scn1lab zebrafish (earlier work)” value (scn1lab mutant zebrafish [1]) of the same compound?
**A.** Its value is “effective in suppressing spontaneous seizures”.

**Q.** What about the Ki (5-HT1B) of the same compound?
**A.** Its Ki is 1.84 µM.

**Q.** And the Ki (Adrenergic alpha1B)?
**A.** Its Ki is 0.142 µM.

**Q.** What about the “patients with heart valve defects” value [2] of the same compound?
**A.** Its value is ~25%.

**Q.** What about the Ki (5-HT7) of the same compound?
**A.** The Ki was 7.31 µM.

**Q.** What about the Ki (5-HT1D) of the same compound?
**A.** The Ki was 1.26 µM.

**Q.** For `Clc1ccc(Cn2c(CN3CCCC3)nc3ccccc32)cc1` [clemizole], which Ki (human 5-HT2BR [3]; known drugs of Table 1; reference not given; read-out: Ki 5-HT2B, Table 1 known drugs; cited from earlier work) is on record?
**A.** Its Ki is 0.025 µM.

**Q.** What about the Ki [4] of the same compound?
**A.** Its Ki is > 10 µM.

**Q.** What about the Ki (5-HT6) of the same compound?
**A.** Its Ki is > 10 µM.

**Q.** What about the Ki (5-HT1A) of the same compound?
**A.** The Ki was > 10 µM.

**Q.** What about the Ki (5-HT1B) of the same compound?
**A.** The Ki was > 10 µM.

**Q.** And the Ki (Histamine H3)?
**A.** Its Ki is 0.402 µM.

**Q.** What about the Ki (human 5-HT2AR [5]) of the same compound?
**A.** Its Ki is 0.239 µM.

**Q.** What about the Ki (5-HT7) of the same compound?
**A.** The Ki was > 10 µM.

**Q.** What about the Ki (5-HT1D) of the same compound?
**A.** The Ki was > 10 µM.

**Q.** And the Ki (human H1 [6])?
**A.** Its Ki is 0.0013 µM.

**Q.** What about the Ki (human 5-HT2CR [7]; known drugs of Table 1; reference not given; read-out: Ki 5-HT2C, Table 1 known drugs; cited from earlier work) of the same compound?
**A.** Its Ki is 0.197 µM.

**Q.** What does the source list for `CC(C)(C)OC(=O)N1CCN(Cc2nc3ccccc3n2Cc2ccc(Cl)cc2)CC1` [Compound 25]?
**A.** change in vivo at 100 µM (scn1lab mutant zebrafish [8]; [15]): -56%; change in vivo at 250 µM (scn1lab mutant zebrafish [8]; [15]): -87%; change in vivo at 100 µM (scn1lab mutant zebrafish [8]; [16]): 91.3%; change in vivo at 250 µM (scn1lab mutant zebrafish [8]; [16]): -92.4%; change in vivo at 100 µM (scn1lab mutant zebrafish [8]; [17]): -65.8%; change in vivo at 250 µM (scn1lab mutant zebrafish [8]; [17]): -76.5%; change in vivo at 100 µM (scn1lab mutant zebrafish [8]; [18]): 78.7%; change in vivo at 250 µM (scn1lab mutant zebrafish [8]; [18]): -56.9%; change in vivo at 100 µM (scn1lab mutant zebrafish [8]; [19]): 35.7%; change in vivo at 250 µM (scn1lab mutant zebrafish [8]; [19]): -100%; change in vivo at 100 µM (scn1lab mutant zebrafish [8]; [20]): 153%; change in vivo at 250 µM (scn1lab mutant zebrafish [8]; [20]): -23.6%; change in vivo at 100 µM (scn1lab mutant zebrafish [8]; [21]): 42%; change in vivo at 250 µM (scn1lab mutant zebrafish [8]; [21]): -82.5%; change in vivo at 100 µM (scn1lab mutant zebrafish [8]; read-out: mean velocity change from six fish, Trial 2): 42%; Ki (human 5-HT2BR [9]): 0.482 µM; Ki (human 5-HT2CR [10]): 2.26 µM; Ki (human 5-HT2AR [11]): 2.38 µM; Ki (human H1 [12]): 0.076 µM; going into solution at screening concentration [13]: failed to go into solution

**Q.** For `CC[C@@H](CO)NC(=O)[C@@H]1C=C2c3cccc4[nH]cc(c34)C[C@H]2N(C)C1` [methylergonovine], which Ki (human 5-HT2BR [3]; read-out: Ki 5-HT2B, Table 1 known drugs; known drugs of Table 1; reference not given; cited from earlier work) is on record?
**A.** The Ki was 0.0022 µM.

**Q.** What about the Ki (5-HT1E) of the same compound?
**A.** The Ki was 0.0891 µM.

**Q.** And the “effect on frequency of electrographic seizure events (LFP)” value (scn1lab mutant zebrafish [14])?
**A.** Its value is “significantly suppressed the frequency of electrographic seizure events”.

**Q.** What about the Ki (5-HT1F) of the same compound?
**A.** Its Ki is 0.031 µM.

**Q.** And the “effect on seizure-like swim behaviour, commercially available compounds” value (scn1lab mutant zebrafish [8]; three concentrations, 30 and 90 min exposure)?
**A.** The value was “suppressed convulsive swim behaviours in a concentration-dependent manner”.

**Q.** And the Ki (human 5-HT2CR [7]; read-out: Ki 5-HT2C, Table 1 known drugs; known drugs of Table 1; reference not given; cited from earlier work)?
**A.** Its Ki is 0.0046 µM.

**Q.** With `C[C@H]1CNCCc2ccc(Cl)cc21` [lorcaserin] as the compound, how does the Ki (Histamine H2) read?
**A.** Its Ki is > 10 µM.

**Q.** And the Ki (5-HT5)?
**A.** The Ki was 3.71 µM.

**Q.** And the Ki [4]?
**A.** Its Ki is 1.4 µM.

**Q.** And the Ki (DOPAMINE D4)?
**A.** Its Ki is > 10 µM.

**Q.** And the Ki (5-HT6)?
**A.** The Ki was 1.98 µM.

**Q.** What about the Ki (Adrenergic alpha2A) of the same compound?
**A.** Its Ki is > 10 µM.

**Q.** And the Ki (5-HT1A)?
**A.** The Ki was 0.7 µM.

**Q.** And the Ki (Adrenergic alpha2B)?
**A.** The Ki was > 10 µM.

**Q.** What about the Ki (Dopamine transporter) of the same compound?
**A.** The Ki was > 10 µM.

**Q.** And the Ki (Adrenergic alpha1B)?
**A.** The Ki was > 10 µM.

**Q.** And the Ki (5-HT transporter)?
**A.** Its Ki is 0.99 µM.

**Q.** What about the Ki (Adrenergic alpha1A) of the same compound?
**A.** Its Ki is > 10 µM.

**Q.** And the Ki (5-HT7)?
**A.** Its Ki is 0.636 µM.

**Q.** And the Ki (DOPAMINE D2)?
**A.** The Ki was > 10 µM.

**Q.** What about the Ki (Adrenergic beta1) of the same compound?
**A.** Its Ki is > 10 µM.

**Q.** And the Ki (Adrenergic beta2)?
**A.** Its Ki is > 10 µM.

**Q.** What about the Ki (DOPAMINE D1) of the same compound?
**A.** Its Ki is > 10 µM.

**Q.** What about the Ki (DOPAMINE D5) of the same compound?
**A.** The Ki was > 10 µM.

**Q.** What about the Ki (Adrenergic alpha2C) of the same compound?
**A.** The Ki was > 10 µM.

Reference: paper PMC6798786 (Brain Communications, 2019)
